Tests used:
[1] = Clearance in mouse at 2 mg/kg, iv administered as infusion or 5 mg/kg, po via gavage measured up to 24 hrs by LC-MS analysis; format: ADME, organism-based; conditions: in vivo
[2] = biological target: T1, Interleukin-1 receptor-associated kinase 4 (Mus musculus) (UniProt Q8R4K2); experiment: In vivo Inhibition of IRAK4 in LTA-treated BALB/c mouse assessed as suppression of IL-6 level in serum at 1 mg/kg by ELISA relative to control; format: functional, organism-based
T1 sequence (whole entry): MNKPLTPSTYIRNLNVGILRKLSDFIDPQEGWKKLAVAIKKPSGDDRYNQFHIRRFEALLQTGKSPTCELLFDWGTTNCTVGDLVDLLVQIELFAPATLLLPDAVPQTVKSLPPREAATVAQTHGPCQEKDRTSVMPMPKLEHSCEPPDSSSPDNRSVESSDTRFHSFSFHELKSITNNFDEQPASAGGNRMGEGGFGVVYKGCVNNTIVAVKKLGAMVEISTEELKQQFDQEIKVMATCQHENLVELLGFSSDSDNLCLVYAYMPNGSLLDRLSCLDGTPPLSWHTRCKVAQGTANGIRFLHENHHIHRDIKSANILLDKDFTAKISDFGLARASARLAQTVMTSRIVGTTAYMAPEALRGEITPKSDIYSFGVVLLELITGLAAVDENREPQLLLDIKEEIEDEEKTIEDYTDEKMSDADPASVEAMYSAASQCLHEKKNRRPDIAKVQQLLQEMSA

[3] = Volume of distribution at steady state in mouse at 2 mg/kg, iv administered as infusion or 5 mg/kg, po via gavage measured up to 24 hrs by LC-MS analysis; format: ADME, organism-based; conditions: in vivo, read-out: Vdss
[4] = AUC in mouse at 2 mg/kg, iv administered as infusion measured up to 24 hrs by LC-MS analysis; format: ADME, organism-based; parameters: time < 24 hr, dose 2 mg/kg, route intravenous; conditions: in vivo
Mus musculus [5] = organism: Mus musculus; experiment: animal or person; conditions: C57BL/6, po, 144 h, read-out: INH
[6] = biological target: T2, Interleukin-1 receptor-associated kinase 4 (Homo sapiens, UniProt Q9NWZ3); experiment: Inhibition of IRAK4 in human PBMC assessed as inhibition of LTA-induced IL-6 production preincubated for 30 mins followed by LTA-stimulation and measured after 5 hrs by ELISA; format: cell-based
T2 sequence (Q9NWZ3 whole entry): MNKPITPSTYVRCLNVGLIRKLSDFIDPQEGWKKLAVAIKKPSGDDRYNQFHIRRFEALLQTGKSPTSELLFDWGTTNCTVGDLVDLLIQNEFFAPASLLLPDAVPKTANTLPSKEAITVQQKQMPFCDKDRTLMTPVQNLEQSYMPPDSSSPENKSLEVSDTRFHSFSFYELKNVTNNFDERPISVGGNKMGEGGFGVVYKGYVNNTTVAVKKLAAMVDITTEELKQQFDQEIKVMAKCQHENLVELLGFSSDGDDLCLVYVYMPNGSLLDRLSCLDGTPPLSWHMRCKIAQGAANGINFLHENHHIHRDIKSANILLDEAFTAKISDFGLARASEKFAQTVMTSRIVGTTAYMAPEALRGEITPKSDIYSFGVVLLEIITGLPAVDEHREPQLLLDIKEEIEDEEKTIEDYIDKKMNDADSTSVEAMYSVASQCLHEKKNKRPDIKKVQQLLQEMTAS

[7] = Drug uptake in imiquimod-induced C57BL/6 mouse model of psoriasis at 10 mg/kg, po dosed via gavage twice daily and measured after 8 hrs by LC-MS analysis; format: ADME, organism-based; conditions: in vivo, read-out: Drug uptake
Mus musculus [8] = organism: Mus musculus; experiment: animal or person; conditions: C57BL/6, po, 144 h, read-out: INH; remark: listed apart in the source
[9] = biological target: Tyrosine-protein kinase Lck (Homo sapiens, UniProt P06239); experiment: Inhibition of N-terminal His6-tagged human full length recombinant LCK expressed in baculovirus infected Sf21 cells
Chain of Tyrosine-protein kinase Lck (P06239 whole entry): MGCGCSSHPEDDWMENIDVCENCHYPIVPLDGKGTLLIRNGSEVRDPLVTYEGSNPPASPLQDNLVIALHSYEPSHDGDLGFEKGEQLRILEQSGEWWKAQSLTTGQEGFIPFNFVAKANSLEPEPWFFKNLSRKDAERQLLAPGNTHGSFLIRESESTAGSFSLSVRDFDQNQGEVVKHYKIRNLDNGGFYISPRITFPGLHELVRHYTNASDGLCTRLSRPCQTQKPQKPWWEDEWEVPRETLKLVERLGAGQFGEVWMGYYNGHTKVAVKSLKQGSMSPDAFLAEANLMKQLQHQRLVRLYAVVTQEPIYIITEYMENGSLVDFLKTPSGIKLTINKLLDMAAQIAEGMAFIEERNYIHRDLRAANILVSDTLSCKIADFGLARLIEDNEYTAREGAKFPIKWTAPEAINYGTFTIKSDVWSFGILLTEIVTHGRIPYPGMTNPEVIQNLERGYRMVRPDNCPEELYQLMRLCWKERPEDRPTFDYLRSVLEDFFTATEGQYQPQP

[10] = biological target: T1, Interleukin-1 receptor-associated kinase 4 (Mus musculus); experiment: In vivo Inhibition of IRAK4 in LTA-treated BALB/c mouse assessed as suppression of IL-6 level in serum at 3 mg/kg by ELISA relative to control; format: functional, organism-based
Mus musculus [11] = organism: Mus musculus; experiment: animal or person; conditions: C57BL/6, po, 144 h, read-out: INH; remark: listed apart in the source
Homo sapiens = organism: Homo sapiens; experiment: Selectivity index, ratio of IC50 for recombinant N-terminal GST-tagged human cKit (544 to end residues) expressed in baculovirus infected Sf21 cells to IC50 for IRAK4 (unknown origin)
[12] = biological target: T2, Interleukin-1 receptor-associated kinase 4; experiment: Inhibition of IRAK4 (unknown origin) using FL-IPTSPITTTYFFFKKK peptide and ATP as substrate incubated for 60 mins by fluorescence based caliper assay
Mus musculus [13] = organism: Mus musculus; experiment: animal or person; conditions: C57BL/6, po, 144 h, read-out: INH; remark: listed apart in the source
[14] = biological target: T3, Interleukin-1 receptor-associated kinase 3 (Homo sapiens, UniProt Q9Y616); experiment: Inhibition of human wild type partial length IRAK3 (147 to 596 residues) expressed in bacterial expression system
T3 sequence (Q9Y616 whole entry): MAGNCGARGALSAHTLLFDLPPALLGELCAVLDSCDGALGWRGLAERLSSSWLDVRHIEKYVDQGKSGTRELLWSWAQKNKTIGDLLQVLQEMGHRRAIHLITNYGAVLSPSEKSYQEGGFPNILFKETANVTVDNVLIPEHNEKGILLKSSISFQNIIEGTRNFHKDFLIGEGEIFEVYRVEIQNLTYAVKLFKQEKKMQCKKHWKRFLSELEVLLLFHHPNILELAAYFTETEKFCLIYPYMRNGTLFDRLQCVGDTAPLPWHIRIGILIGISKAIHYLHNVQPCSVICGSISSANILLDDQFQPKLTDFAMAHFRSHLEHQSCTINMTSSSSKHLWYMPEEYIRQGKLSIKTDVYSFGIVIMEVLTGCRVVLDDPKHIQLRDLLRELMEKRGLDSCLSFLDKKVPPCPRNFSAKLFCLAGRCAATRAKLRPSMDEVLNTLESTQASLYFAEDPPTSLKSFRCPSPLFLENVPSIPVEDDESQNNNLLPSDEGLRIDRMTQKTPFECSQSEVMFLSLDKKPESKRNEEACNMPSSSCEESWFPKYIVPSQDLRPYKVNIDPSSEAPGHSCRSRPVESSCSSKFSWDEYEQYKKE

[15] = Stability in mouse liver microsomes assessed as parent compound remaining measured after 10 mins; format: ADME, Microsome; conditions: read-out: Stability
[16] = Permeability across apical to basolateral side in human Caco2 cells; conditions: Caco-2
Mus musculus [17] = organism: Mus musculus; experiment: animal or person; conditions: C57BL/6, po, 144 h, read-out: INH; remark: listed apart in the source
[18] = Drug uptake in imiquimod-induced C57BL/6 mouse model of psoriasis at 1 mg/kg, po dosed via gavage twice daily and measured after 2 hrs by LC-MS analysis; format: ADME, organism-based; conditions: in vivo, read-out: Drug uptake
[19] = Drug uptake in imiquimod-induced C57BL/6 mouse model of psoriasis at 10 mg/kg, po dosed via gavage twice daily and measured after 2 hrs by LC-MS analysis; format: ADME, organism-based; conditions: in vivo, read-out: Drug uptake
Mus musculus [20] = experiment: Protection against po dosed imiquimod-induced psoriasis in C57BL/6 mouse assessed as reduction in clinical signs of psoriasis administered via gavage twice daily and measured on day 6; format: functional, organism-based
[21] = Oral bioavailability in mouse at 5 mg/kg administered via gavage measured up to 24 hrs by LC-MS analysis; format: ADME, organism-based; conditions: in vivo

**Q.** With `CC(C)Nc1cc(Nc2nc3ccnn3cc2F)ncc1C(=O)NC[C@@H](F)C(C)(C)O` as the compound, how does the clearance [1] read?
**A.** 15 mL/min/kg

**Q.** What about the inhibition [2] of the same compound?
**A.** 68%

**Q.** And the Vd [3]?
**A.** 2 L/kg

**Q.** What about the AUC at 24 h [4] of the same compound?
**A.** 5 µM·h

**Q.** What about the inhibition in vivo at 3 mg/kg (Mus musculus [5]) of the same compound?
**A.** 30%

**Q.** And the IC50 [6]?
**A.** 370 nM

**Q.** What about the concentration at 8 h [7] of the same compound?
**A.** 494 nM

**Q.** What about the inhibition in vivo at 10 mg/kg (Mus musculus [8]) of the same compound?
**A.** 64%

**Q.** What about the IC50 [9] of the same compound?
**A.** > 2000 nM

**Q.** And the inhibition [10]?
**A.** 87%

**Q.** What about the inhibition in vivo at 3 mg/kg (Mus musculus [11]) of the same compound?
**A.** 41%

**Q.** And the Ratio IC50 (Homo sapiens)?
**A.** > 590

**Q.** And the IC50 [12]?
**A.** 3.4 nM

**Q.** What about the inhibition in vivo at 10 mg/kg (Mus musculus [13]) of the same compound?
**A.** 43%

**Q.** What about the IC50 [14] of the same compound?
**A.** 760 nM

**Q.** What about the remaining at 10 min [15] of the same compound?
**A.** 89%

**Q.** What about the Papp A→B [16] of the same compound?
**A.** 21.5 ×10⁻⁶ cm/s

**Q.** And the inhibition in vivo at 1 mg/kg (Mus musculus [17])?
**A.** 27%

**Q.** And the concentration at 2 h [18]?
**A.** 400 nM

**Q.** And the concentration at 2 h [19]?
**A.** 9400 nM

**Q.** What about the Activity (Mus musculus [20]) of the same compound?
**A.** Dose-dependent effect

**Q.** And the bioavailability [21]?
**A.** > 100%
